These results are taken from article PMC5218480 (PLoS ONE, 2017).

The experiment has as its system MV-4-11 cells. As to the kind of experiment: Gene expression microarray analysis (Affymetrix PrimeView) and GSEA. The class given is cell-based, human. The arrangement: RFU PODN (11730768_x_at) / Fold change /veh PODN (11730768_x_at) / RFU LINC00158 (11744669_a_at) / Fold change /veh LINC00158 (11744669_a_at) / RFU DUSP10 (11751237_a_at) / Fold change /veh DUSP10 (11751237_a_at) / RFU ID3 (11757404_x_at) / Fold change /veh ID3 (11757404_x_at) / RFU PLEKHG5 (11737974_s_at) / Fold change /veh PLEKHG5 (11737974_s_at) / RFU LRRC4B (11730491_at) / Fold change /veh LRRC4B (11730491_at) / RFU GIMAP4 (11747438_a_at) / Fold change /veh GIMAP4 (11747438_a_at) / RFU KRT8 (11758183_x_at) / Fold change /veh KRT8 (11758183_x_at) / RFU CNN1 (11734310_a_at) / Fold change /veh CNN1 (11734310_a_at) / RFU VPS37D (11726825_at) / Fold change /veh VPS37D (11726825_at) / RFU C10orf10 (11716522_x_at) / Fold change /veh C10orf10 (11716522_x_at) / RFU KIR2DL2 /// KIR2DL4 /// KIR2DL5A /// KIR2DL5B /// KIR2DS1 /// KIR2DS2 /// KIR2DS3 /// KIR2DS4 /// KIR3DL3 /// KIR3DL3 /// KIR3DS1 (11738374_at) / Fold change /veh KIR2DL2 /// KIR2DL4 /// KIR2DL5A /// KIR2DL5B /// KIR2DS1 /// KIR2DS2 /// KIR2DS3 /// KIR2DS4 /// KIR3DL3 /// KIR3DL3 /// KIR3DS1 (11738374_at) / RFU C1QL1 (11718748_at) / Fold change /veh C1QL1 (11718748_at) / RFU TMPRSS4 (11747572_a_at) / Fold change /veh TMPRSS4 (11747572_a_at) / RFU HAMP (11756126_x_at) / Fold change /veh HAMP (11756126_x_at) / RFU RNFT2 (11725882_a_at) / Fold change /veh RNFT2 (11725882_a_at) / RFU NR4A2 (11747474_a_at) / Fold change /veh NR4A2 (11747474_a_at) / RFU ABCC12 (11746883_a_at) / Fold change /veh ABCC12 (11746883_a_at) / RFU TMEM136 (11760407_x_at) / Fold change /veh TMEM136 (11760407_x_at) / RFU CLDN22 /// WWC2 (11732394_at) / Fold change /veh CLDN22 /// WWC2 (11732394_at) / RFU HLA-DPB1 (11760878_x_at) / Fold change /veh HLA-DPB1 (11760878_x_at) / RFU SPINT1 (11716480_a_at) / Fold change /veh SPINT1 (11716480_a_at) / RFU GAP43 (11754022_s_at) / Fold change /veh GAP43 (11754022_s_at) / RFU A4GNT (11735810_at) / Fold change /veh A4GNT (11735810_at) / RFU PRB3 (11715151_x_at) / Fold change /veh PRB3 (11715151_x_at) / RFU TUBB4B (11761932_at) / Fold change /veh TUBB4B (11761932_at) / RFU CAPN14 (11732068_a_at) / Fold change /veh CAPN14 (11732068_a_at) / RFU TMCC2 (11721928_a_at) / Fold change /veh TMCC2 (11721928_a_at) / RFU IRGQ (11745062_a_at) / Fold change /veh IRGQ (11745062_a_at) / RFU FAM174B (11720279_a_at) / Fold change /veh FAM174B (11720279_a_at) / RFU TMPRSS4 (11748680_a_at) / Fold change /veh TMPRSS4 (11748680_a_at) / RFU FAM212B (11763350_a_at) / Fold change /veh FAM212B (11763350_a_at) / RFU PLEKHG5 (11743358_a_at) / Fold change /veh PLEKHG5 (11743358_a_at) / RFU ZSCAN30 (11745921_a_at) / Fold change /veh ZSCAN30 (11745921_a_at) / RFU CMKLR1 (11741424_a_at) / Fold change /veh CMKLR1 (11741424_a_at) / RFU LOC101060620 /// MAPK8IP1 (11723275_at) / Fold change /veh LOC101060620 /// MAPK8IP1 (11723275_at) / RFU SPTSSB (11747773_x_at) / Fold change /veh SPTSSB (11747773_x_at) / RFU PRSS12 (11739890_at) / Fold change /veh PRSS12 (11739890_at) / RFU BIN1 (11741810_x_at) / Fold change /veh BIN1 (11741810_x_at) / RFU WNT11 (11732464_a_at) / Fold change /veh WNT11 (11732464_a_at) / RFU C10orf10 (11716521_a_at) / Fold change /veh C10orf10 (11716521_a_at) / RFU C5orf56 (11738089_at) / Fold change /veh C5orf56 (11738089_at) / RFU CYB561 (11721691_x_at) / Fold change /veh CYB561 (11721691_x_at) / RFU ANKRD19P (11752326_a_at) / Fold change /veh ANKRD19P (11752326_a_at) / RFU OR2T12 /// OR2T33 /// OR2T8 (11738714_s_at) / Fold change /veh OR2T12 /// OR2T33 /// OR2T8 (11738714_s_at) / RFU VCAN (11748164_a_at) / Fold change /veh VCAN (11748164_a_at) / RFU JSRP1 (11732532_at) / Fold change /veh JSRP1 (11732532_at) / RFU KRTAP10-11 (11738290_x_at) / Fold change /veh KRTAP10-11 (11738290_x_at) / RFU MYO3A (11730013_a_at) / Fold change /veh MYO3A (11730013_a_at) / RFU EBF3 (11725865_a_at) / Fold change /veh EBF3 (11725865_a_at) / RFU CAMK2N1 (11719241_x_at) / Fold change /veh CAMK2N1 (11719241_x_at) / RFU C5orf56 (11738088_a_at) / Fold change /veh C5orf56 (11738088_a_at) / RFU OLFML3 (11715873_a_at) / Fold change /veh OLFML3 (11715873_a_at) / RFU LOC100653217 /// NTM (11731650_a_at) / Fold change /veh LOC100653217 /// NTM (11731650_a_at) / RFU MAPK11 (11762145_a_at) / Fold change /veh MAPK11 (11762145_a_at) / RFU FIZ1 (11724087_x_at) / Fold change /veh FIZ1 (11724087_x_at) / RFU OASL (11726364_x_at) / Fold change /veh OASL (11726364_x_at) / RFU SOX15 (11748057_x_at) / Fold change /veh SOX15 (11748057_x_at) / RFU CD79A (11719716_a_at) / Fold change /veh CD79A (11719716_a_at) / RFU HIST1H1D (11736915_at) / Fold change /veh HIST1H1D (11736915_at) / RFU CASKIN2 (11723855_a_at) / Fold change /veh CASKIN2 (11723855_a_at) / RFU LOC730098 (11760151_x_at) / Fold change /veh LOC730098 (11760151_x_at) / RFU OR4N2 (11742367_at) / Fold change /veh OR4N2 (11742367_at) / RFU PRRT2 (11749266_a_at) / Fold change /veh PRRT2 (11749266_a_at) / RFU SNX32 (11753110_a_at) / Fold change /veh SNX32 (11753110_a_at) / RFU CDHR5 (11726645_a_at) / Fold change /veh CDHR5 (11726645_a_at) / RFU RCAN1 (11760418_a_at) / Fold change /veh RCAN1 (11760418_a_at) / RFU FAM167A (11723789_a_at) / Fold change /veh FAM167A (11723789_a_at) / RFU FAM26E (11764081_at) / Fold change /veh FAM26E (11764081_at) / RFU ISYNA1 (11749810_s_at) / Fold change /veh ISYNA1 (11749810_s_at) / RFU ACY1 (11761880_at) / Fold change /veh ACY1 (11761880_at) / RFU 11764098_at / Fold change /veh 11764098_at / RFU SAMD14 (11745864_x_at) / Fold change /veh SAMD14 (11745864_x_at) / RFU NPB (11741838_a_at) / Fold change /veh NPB (11741838_a_at) / RFU TMPRSS6 (11731388_a_at) / Fold change /veh TMPRSS6 (11731388_a_at) / RFU KRTAP10-2 (11738614_at) / Fold change /veh KRTAP10-2 (11738614_at) / RFU ARHGAP8 /// PRR5-ARHGAP8 (11727945_x_at) / Fold change /veh ARHGAP8 /// PRR5-ARHGAP8 (11727945_x_at) / RFU KRTAP5-7 /// NADSYN1 (11734609_at) / Fold change /veh KRTAP5-7 /// NADSYN1 (11734609_at) / RFU RASL12 (11751679_a_at) / Fold change /veh RASL12 (11751679_a_at) / RFU CDKN2B (11736163_a_at) / Fold change /veh CDKN2B (11736163_a_at) / RFU PRF1 (11729649_at) / Fold change /veh PRF1 (11729649_at) / RFU, ZNF638 /// ZNF638-IT1 / Fold change vs veh, ZNF638 /// ZNF638-IT1 / RFU, PANK3 / Fold change vs veh, PANK3 / RFU, SH3YL1 / Fold change vs veh, SH3YL1 / RFU, ZEB2 / Fold change vs veh, ZEB2 / RFU, NRIP1 / Fold change vs veh, NRIP1 / RFU, PTTG1IP / Fold change vs veh, PTTG1IP / RFU, CAPN2 / Fold change vs veh, CAPN2 / RFU, MED14 / Fold change vs veh, MED14 / RFU, SNORA58 / Fold change vs veh, SNORA58 / RFU, C1orf63 / Fold change vs veh, C1orf63 / RFU, LRRFIP1 / Fold change vs veh, LRRFIP1 / RFU, NDUFAF7 / Fold change vs veh, NDUFAF7 / RFU, SLC12A2 / Fold change vs veh, SLC12A2 / RFU, IBTK / Fold change vs veh, IBTK / RFU, ESF1 / Fold change vs veh, ESF1 / Fold change vs veh, TMEM50B / RFU, TAOK1 / Fold change vs veh, TAOK1 / RFU, ACBD3 / Fold change vs veh, ACBD3 / RFU, TMA16 / Fold change vs veh, TMA16 / RFU, RWDD3 / Fold change vs veh, RWDD3 / RFU, BCAT1 / Fold change vs veh, BCAT1 / RFU, EDEM3 / Fold change vs veh, EDEM3 / RFU, TMEM33 / Fold change vs veh, TMEM33 / RFU, WDR75 / Fold change vs veh, WDR75 / RFU, AHCTF1 / Fold change vs veh, AHCTF1 / RFU, TFRC / Fold change vs veh, TFRC / RFU, ZDHHC17 / Fold change vs veh, ZDHHC17 / RFU, NOM1 / Fold change vs veh, NOM1 / RFU, ARL8B / Fold change vs veh, ARL8B / RFU, ZBTB11 / Fold change vs veh, ZBTB11 / RFU, TAMM41 / Fold change vs veh, TAMM41 / RFU, KIAA1704 /// LOC100996395 / Fold change vs veh, KIAA1704 /// LOC100996395 / RFU, ING1 / Fold change vs veh, ING1 / RFU, TRMT61B / Fold change vs veh, TRMT61B / RFU, FUBP3 / Fold change vs veh, FUBP3 / RFU, TP53 / Fold change vs veh, TP53 / RFU, TNKS2 / Fold change vs veh, TNKS2 / RFU, ZFP14 / Fold change vs veh, ZFP14 / RFU, ACTR2 / Fold change vs veh, ACTR2 / RFU, PPP3R1 / Fold change vs veh, PPP3R1 / RFU, PIK3R1 / Fold change vs veh, PIK3R1 / RFU, HNRNPA1 / Fold change vs veh, HNRNPA1 / RFU, RNF170 / Fold change vs veh, RNF170 / RFU, ZNF28 / Fold change vs veh, ZNF28 / RFU, RNGTT / Fold change vs veh, RNGTT / RFU, OGT / Fold change vs veh, OGT / RFU, BRD1 / Fold change vs veh, BRD1 / RFU, MARS / Fold change vs veh, MARS / RFU, ZNF655 / Fold change vs veh, ZNF655 / RFU, FAHD1 / Fold change vs veh, FAHD1 / RFU, BDP1 / Fold change vs veh, BDP1 / RFU, LRRCC1 / Fold change vs veh, LRRCC1 / RFU, ARID1A / Fold change vs veh, ARID1A / RFU, ZNF146 / Fold change vs veh, ZNF146 / RFU, ZNF330 / Fold change vs veh, ZNF330 / RFU, GPN3 / Fold change vs veh, GPN3 / RFU, C9orf123 / Fold change vs veh, C9orf123 / RFU, N4BP2L2 / Fold change vs veh, N4BP2L2 / RFU, ARFIP1 / Fold change vs veh, ARFIP1 / RFU, FAM179B / Fold change vs veh, FAM179B / RFU, BCL10 / Fold change vs veh, BCL10 / RFU, UHRF1BP1L / Fold change vs veh, UHRF1BP1L / RFU, BET1 / Fold change vs veh, BET1 / RFU, CNOT2 / Fold change vs veh, CNOT2 / RFU, ZNF268 / Fold change vs veh, ZNF268 / Fold change vs veh, ZNF507 / RFU, DGCR2 / Fold change vs veh, DGCR2 / RFU, WDSUB1 / Fold change vs veh, WDSUB1 / Fold change vs veh, HSP90B1 /// MIR3652 / RFU, ADSS / Fold change vs veh, ADSS / RFU, GK / Fold change vs veh, GK / RFU, ZNF148 / Fold change vs veh, ZNF148 / RFU, TAF9 / Fold change vs veh, TAF9 / RFU, SLC1A5 / Fold change vs veh, SLC1A5 / RFU, SLMO2 / Fold change vs veh, SLMO2 / RFU, ABCC4 / Fold change vs veh, ABCC4 / RFU, LOC101060439 /// RAP1B / Fold change vs veh, LOC101060439 /// RAP1B / RFU, RFX7 / Fold change vs veh, RFX7 / RFU, GTPBP10 / Fold change vs veh, GTPBP10 / RFU, CNEP1R1 / Fold change vs veh, CNEP1R1 / RFU, BIVM-ERCC5 /// ERCC5 / Fold change vs veh, BIVM-ERCC5 /// ERCC5 / RFU, ILF3 / Fold change vs veh, ILF3 / RFU 11762660_at / Fold change /veh 11762660_at / RFU VCAN (11757783_s_at) / Fold change /veh VCAN (11757783_s_at) / RFU DDX43 (11728927_at) / Fold change /veh DDX43 (11728927_at) / RFU KRT8 (11758188_x_at) / Fold change /veh KRT8 (11758188_x_at) / RFU NKD1 (11759106_at) / Fold change /veh NKD1 (11759106_at) / RFU SRD5A1 (11742802_a_at) / Fold change /veh SRD5A1 (11742802_a_at) / RFU TPSAB1 /// TPSB2 (11721975_s_at) / Fold change /veh TPSAB1 /// TPSB2 (11721975_s_at) / RFU GSTM3 (11746129_a_at) / Fold change /veh GSTM3 (11746129_a_at) / RFU IL23R (11737362_x_at) / Fold change /veh IL23R (11737362_x_at) / RFU TMEM51 (11727254_a_at) / Fold change /veh TMEM51 (11727254_a_at) / RFU PIWIL2 (11732686_x_at) / Fold change /veh PIWIL2 (11732686_x_at) / RFU ORM1 (11744905_x_at) / Fold change /veh ORM1 (11744905_x_at) / RFU CCDC152 (11743942_at) / Fold change /veh CCDC152 (11743942_at) / RFU ECM1 (11717891_a_at) / Fold change /veh ECM1 (11717891_a_at) / RFU IL23R (11748794_a_at) / Fold change /veh IL23R (11748794_a_at) / RFU TNFAIP8L3 (11732012_x_at) / Fold change /veh TNFAIP8L3 (11732012_x_at) / RFU MBOAT4 (11741988_at) / Fold change /veh MBOAT4 (11741988_at) / RFU 11764193_at / Fold change /veh 11764193_at / RFU TMEM53 (11763286_at) / Fold change /veh TMEM53 (11763286_at) / RFU MAGEB2 (11727129_at) / Fold change /veh MAGEB2 (11727129_at) / RFU TMEM200A (11744735_a_at) / Fold change /veh TMEM200A (11744735_a_at) / RFU CCDC152 (11751479_a_at) / Fold change /veh CCDC152 (11751479_a_at) / RFU FAM211A (11726209_a_at) / Fold change /veh FAM211A (11726209_a_at) / RFU RGS16 (11746705_a_at) / Fold change /veh RGS16 (11746705_a_at) / RFU VCAN (11755009_s_at) / Fold change /veh VCAN (11755009_s_at) / RFU RHOB (11743442_s_at) / Fold change /veh RHOB (11743442_s_at) / RFU RGS16 (11720943_a_at) / Fold change /veh RGS16 (11720943_a_at) / RFU RGS16 (11720944_at) / Fold change /veh RGS16 (11720944_at) / RFU, VPS4B / Fold change vs veh, VPS4B / RFU, CREB1 / Fold change vs veh, CREB1 / RFU, DNAJC13 / Fold change vs veh, DNAJC13 / RFU, GNAQ / Fold change vs veh, GNAQ / RFU, CDK5R1 / Fold change vs veh, CDK5R1 / RFU, ZRANB3 / Fold change vs veh, ZRANB3 / RFU, CUL4A / Fold change vs veh, CUL4A / RFU, CCNY / Fold change vs veh, CCNY / RFU, UFL1 / Fold change vs veh, UFL1 / RFU, COG3 / Fold change vs veh, COG3 / RFU, DIAPH2 / Fold change vs veh, DIAPH2 / RFU, SKA2 / Fold change vs veh, SKA2 / RFU, AFF3 / Fold change vs veh, AFF3 / RFU, LMF1 / Fold change vs veh, LMF1 / RFU, IPO11 / Fold change vs veh, IPO11 / RFU, DFFB / Fold change vs veh, DFFB / RFU, FOXP1 / Fold change vs veh, FOXP1 / RFU, CARD8 / Fold change vs veh, CARD8 / RFU, STRN3 / Fold change vs veh, STRN3 / RFU, ADK / Fold change vs veh, ADK / RFU, RASSF2 / Fold change vs veh, RASSF2 / RFU, WIPF1 / Fold change vs veh, WIPF1 / RFU, LARP1B / Fold change vs veh, LARP1B / RFU, RASA1 / Fold change vs veh, RASA1 / RFU, RB1 / Fold change vs veh, RB1 / RFU, PPFIA1 / Fold change vs veh, PPFIA1 / RFU, MAT2A / Fold change vs veh, MAT2A / RFU, CCT5 / Fold change vs veh, CCT5 / RFU, WDR92 / Fold change vs veh, WDR92 / RFU, CUX1 / Fold change vs veh, CUX1 / RFU, TTC7A / Fold change vs veh, TTC7A / RFU, TMEM135 / Fold change vs veh, TMEM135 / RFU, DEPTOR / Fold change vs veh, DEPTOR / RFU, CPM / Fold change vs veh, CPM / RFU, DNAJB6 / Fold change vs veh, DNAJB6 / RFU, CACNA2D3 / Fold change vs veh, CACNA2D3 / RFU, DTX4 / Fold change vs veh, DTX4 / RFU, TFCP2 / Fold change vs veh, TFCP2 / RFU, GMCL1 /// GMCL1P1 / Fold change vs veh, GMCL1 /// GMCL1P1 / RFU, AEBP2 / Fold change vs veh, AEBP2 / RFU, SNHG1 /// SNORD22 /// SNORD25 /// SNORD26 /// SNORD27 /// SNORD28 /// SNORD29 /// SNORD31 / Fold change vs veh, SNHG1 /// SNORD22 /// SNORD25 /// SNORD26 /// SNORD27 /// SNORD28 /// SNORD29 /// SNORD31 / Fold change (Aza/veh), C12orf56 (ProbeSet 11735607_a_at) / Fold change (ACY-1035/veh), C12orf56 (ProbeSet 11735607_a_at) / Fold change (Aza/veh), FGFR1OP (ProbeSet 11751329_s_at) / Fold change (ACY-1035/veh), FGFR1OP (ProbeSet 11751329_s_at) / Fold change (Aza/veh), VPS36 (ProbeSet 11739960_a_at) / Fold change (ACY-1035/veh), VPS36 (ProbeSet 11739960_a_at) / RFU SYPL1 (11715823_x_at) / Fold change /veh SYPL1 (11715823_x_at) / RFU IGFBP7 (11715501_s_at) / Fold change /veh IGFBP7 (11715501_s_at) / RFU REEP3 (11722064_at) / Fold change /veh REEP3 (11722064_at) / RFU IGLL1 (11728026_x_at) / Fold change /veh IGLL1 (11728026_x_at): dose or concentration left out as unconfirmed. The settings on record: ProbeSet 11728314_at; LIST B.

The structures appear in SMILES notation.

`Nc1ccc(-c2cccs2)cc1NC(=O)c1ccc2c(c1)cc(C1CC1)n2CCN1CCOCC1` [ACY-1035]: the “RFU, ZNF148” value is 188.07 RFU.
